Results taken from PMC5666424, “Marine-Derived 2-Aminoimidazolone Alkaloids. Leucettamine B-Related Polyandrocarpamines Inhibit Mammalian and Protozoan DYRK & CLK Kinases” (Marine Drugs, 2017).

Key:
Assay in all cases: KinomeScan
Type in all cases: binding
Conditions in all cases: 1 μM
MST2 = molecular target: T1, MST2 (Homo sapiens, UniProt Q13188)
T1 construct: purchased DiscoverX (KINOMEscan)

AMPK-alpha2 = molecular target: T2, AMPK-alpha2 (Homo sapiens, UniProt P54646)
T2 construct: purchased DiscoverX (KINOMEscan)
T2 sequence (P54646 whole entry): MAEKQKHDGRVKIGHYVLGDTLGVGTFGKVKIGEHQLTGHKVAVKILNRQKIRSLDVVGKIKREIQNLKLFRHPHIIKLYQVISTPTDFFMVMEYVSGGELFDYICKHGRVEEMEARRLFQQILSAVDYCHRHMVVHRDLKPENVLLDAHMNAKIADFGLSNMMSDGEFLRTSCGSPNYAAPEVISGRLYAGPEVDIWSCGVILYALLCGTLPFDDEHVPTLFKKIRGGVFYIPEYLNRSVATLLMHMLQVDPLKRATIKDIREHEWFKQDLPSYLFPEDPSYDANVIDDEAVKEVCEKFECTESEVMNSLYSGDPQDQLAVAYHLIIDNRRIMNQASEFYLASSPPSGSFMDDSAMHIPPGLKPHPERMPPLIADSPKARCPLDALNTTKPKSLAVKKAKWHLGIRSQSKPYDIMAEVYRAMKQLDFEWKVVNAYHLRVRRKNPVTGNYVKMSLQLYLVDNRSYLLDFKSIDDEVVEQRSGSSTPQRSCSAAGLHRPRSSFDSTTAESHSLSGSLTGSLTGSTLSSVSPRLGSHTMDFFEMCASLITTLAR

TRKB = molecular target: T3, TRKB (Homo sapiens, UniProt Q16620)
T3 construct: purchased DiscoverX (KINOMEscan)
T3 sequence (Q16620 32-822): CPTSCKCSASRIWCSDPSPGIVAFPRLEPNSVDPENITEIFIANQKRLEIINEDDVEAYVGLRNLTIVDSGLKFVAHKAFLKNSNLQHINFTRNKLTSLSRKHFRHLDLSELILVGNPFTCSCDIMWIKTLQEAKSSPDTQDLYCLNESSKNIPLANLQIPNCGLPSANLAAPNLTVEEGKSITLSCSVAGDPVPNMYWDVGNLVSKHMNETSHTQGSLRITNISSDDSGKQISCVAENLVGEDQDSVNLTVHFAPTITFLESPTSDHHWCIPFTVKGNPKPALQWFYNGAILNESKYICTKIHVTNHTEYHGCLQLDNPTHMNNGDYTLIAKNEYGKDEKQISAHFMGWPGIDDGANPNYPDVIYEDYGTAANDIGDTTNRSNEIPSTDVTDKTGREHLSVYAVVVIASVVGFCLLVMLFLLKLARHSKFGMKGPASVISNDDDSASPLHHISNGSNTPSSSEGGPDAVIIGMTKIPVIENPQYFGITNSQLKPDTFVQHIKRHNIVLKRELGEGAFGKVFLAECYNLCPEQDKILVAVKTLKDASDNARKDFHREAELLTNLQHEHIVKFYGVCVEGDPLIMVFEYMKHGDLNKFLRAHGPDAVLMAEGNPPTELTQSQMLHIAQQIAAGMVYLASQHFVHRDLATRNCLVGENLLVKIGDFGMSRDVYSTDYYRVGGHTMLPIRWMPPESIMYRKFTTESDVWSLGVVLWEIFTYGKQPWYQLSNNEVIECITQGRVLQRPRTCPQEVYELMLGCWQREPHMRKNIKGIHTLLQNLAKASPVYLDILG

SNARK = molecular target: T4, SNARK (Homo sapiens, UniProt Q9H093)
T4 construct: purchased DiscoverX (KINOMEscan)

TNIK = molecular target: T5, TNIK (Homo sapiens, UniProt Q9UKE5)
T5 construct: purchased DiscoverX (KINOMEscan)

MYLK = molecular target: T6, MYLK (Homo sapiens, UniProt Q15746)
T6 construct: purchased DiscoverX (KINOMEscan)

TESK1 = molecular target: T7, TESK1 (Homo sapiens, UniProt Q15569)
T7 construct: purchased DiscoverX (KINOMEscan)

TRKA = molecular target: T8, TRKA (Homo sapiens, UniProt P04629)
T8 construct: purchased DiscoverX (KINOMEscan)

[1] = molecular target: T9, ABL1(H396P)-nonphosphorylated (Homo sapiens, UniProt P00519, H396P)
T9 construct: purchased DiscoverX (KINOMEscan)

EGFR(S752-I759del) = molecular target: T10, EGFR(S752-I759del) (Homo sapiens, UniProt P00533, DEL752-759)
T10 construct: purchased DiscoverX (KINOMEscan)

CSNK2A2 = molecular target: T11, CSNK2A2 (Homo sapiens, UniProt P19784)
T11 construct: purchased DiscoverX (KINOMEscan)

NEK6 = molecular target: T12, NEK6 (Homo sapiens, UniProt Q9HC98)
T12 construct: purchased DiscoverX (KINOMEscan)

TBK1 = molecular target: T13, TBK1 (Homo sapiens, UniProt Q9UHD2)
T13 construct: purchased DiscoverX (KINOMEscan)

TLK1 = molecular target: T14, TLK1 (Homo sapiens, UniProt Q9UKI8)
T14 construct: purchased DiscoverX (KINOMEscan)

[2] = molecular target: T15, ABL1(Q252H)-phosphorylated (Homo sapiens, UniProt P00519, Q252H)
T15 construct: purchased DiscoverX (KINOMEscan)

INSRR = molecular target: T16, INSRR (Homo sapiens, UniProt P14616)
T16 construct: purchased DiscoverX (KINOMEscan)

LCK = molecular target: T17, LCK (Homo sapiens, UniProt P06239)
T17 construct: purchased DiscoverX (KINOMEscan)
T17 sequence (P06239 whole entry): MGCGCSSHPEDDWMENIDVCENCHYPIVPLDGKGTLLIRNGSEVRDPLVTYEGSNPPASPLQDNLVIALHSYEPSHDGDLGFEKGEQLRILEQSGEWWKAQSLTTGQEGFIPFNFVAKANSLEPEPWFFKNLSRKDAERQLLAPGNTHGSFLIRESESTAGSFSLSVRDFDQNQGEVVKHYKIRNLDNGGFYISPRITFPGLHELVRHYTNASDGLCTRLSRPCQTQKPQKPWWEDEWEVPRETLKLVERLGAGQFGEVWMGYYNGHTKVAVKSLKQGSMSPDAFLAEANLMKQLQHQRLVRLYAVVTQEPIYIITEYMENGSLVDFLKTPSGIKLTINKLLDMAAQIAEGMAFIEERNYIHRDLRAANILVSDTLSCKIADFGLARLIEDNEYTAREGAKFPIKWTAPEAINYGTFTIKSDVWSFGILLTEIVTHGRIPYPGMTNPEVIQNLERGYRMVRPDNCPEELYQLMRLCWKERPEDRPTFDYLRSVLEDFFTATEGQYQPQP

ZAK = molecular target: T18, ZAK (Homo sapiens, UniProt Q9NYL2)
T18 construct: purchased DiscoverX (KINOMEscan)

ARK5 = molecular target: T19, ARK5 (Homo sapiens, UniProt O60285)
T19 construct: purchased DiscoverX (KINOMEscan)

BLK = molecular target: T20, BLK (Homo sapiens, UniProt P51451)
T20 construct: purchased DiscoverX (KINOMEscan)

KIT(D816H) = molecular target: T21, KIT(D816H) (Homo sapiens, UniProt P10721, D816H)
T21 construct: purchased DiscoverX (KINOMEscan)

MLK3 = molecular target: T22, MLK3 (Homo sapiens, UniProt Q16584)
T22 construct: purchased DiscoverX (KINOMEscan)
T22 sequence (Q16584 whole entry): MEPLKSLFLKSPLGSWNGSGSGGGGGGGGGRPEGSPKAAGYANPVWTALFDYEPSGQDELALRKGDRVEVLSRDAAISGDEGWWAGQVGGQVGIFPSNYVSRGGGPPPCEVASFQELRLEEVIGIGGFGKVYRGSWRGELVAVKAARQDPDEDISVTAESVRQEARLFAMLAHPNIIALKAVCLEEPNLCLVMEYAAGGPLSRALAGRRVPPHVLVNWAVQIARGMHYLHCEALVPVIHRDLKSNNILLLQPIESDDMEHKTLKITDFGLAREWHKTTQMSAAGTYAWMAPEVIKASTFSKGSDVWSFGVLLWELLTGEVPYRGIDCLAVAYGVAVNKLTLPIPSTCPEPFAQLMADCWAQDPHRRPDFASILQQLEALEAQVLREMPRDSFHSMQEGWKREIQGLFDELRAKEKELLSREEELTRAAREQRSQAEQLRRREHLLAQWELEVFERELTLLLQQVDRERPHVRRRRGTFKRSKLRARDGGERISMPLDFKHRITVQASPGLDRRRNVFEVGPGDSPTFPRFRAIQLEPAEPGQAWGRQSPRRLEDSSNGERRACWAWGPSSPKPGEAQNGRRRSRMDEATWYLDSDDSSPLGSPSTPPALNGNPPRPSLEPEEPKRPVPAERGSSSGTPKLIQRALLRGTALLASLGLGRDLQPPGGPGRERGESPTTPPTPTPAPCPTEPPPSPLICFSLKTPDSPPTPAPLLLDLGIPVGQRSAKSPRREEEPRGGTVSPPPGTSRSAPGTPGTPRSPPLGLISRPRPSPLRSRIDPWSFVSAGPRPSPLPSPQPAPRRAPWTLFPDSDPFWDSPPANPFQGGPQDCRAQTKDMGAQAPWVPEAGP

CHEK2 = molecular target: T23, CHEK2 (Homo sapiens, UniProt O96017)
T23 construct: purchased DiscoverX (KINOMEscan)

FAK = molecular target: T24, FAK (Homo sapiens, UniProt Q05397)
T24 construct: purchased DiscoverX (KINOMEscan)

[3] = molecular target: T25, JAK2(JH1domain-catalytic) (Homo sapiens, UniProt O60674)
T25 construct: JAK2(JH1domain-catalytic); purchased DiscoverX (KINOMEscan)

MAP3K2 = molecular target: T26, MAP3K2 (Homo sapiens, UniProt Q9Y2U5)
T26 construct: purchased DiscoverX (KINOMEscan)

SRMS = molecular target: T27, SRMS (Homo sapiens, UniProt Q9H3Y6)
T27 construct: purchased DiscoverX (KINOMEscan)
T27 sequence (Q9H3Y6 whole entry): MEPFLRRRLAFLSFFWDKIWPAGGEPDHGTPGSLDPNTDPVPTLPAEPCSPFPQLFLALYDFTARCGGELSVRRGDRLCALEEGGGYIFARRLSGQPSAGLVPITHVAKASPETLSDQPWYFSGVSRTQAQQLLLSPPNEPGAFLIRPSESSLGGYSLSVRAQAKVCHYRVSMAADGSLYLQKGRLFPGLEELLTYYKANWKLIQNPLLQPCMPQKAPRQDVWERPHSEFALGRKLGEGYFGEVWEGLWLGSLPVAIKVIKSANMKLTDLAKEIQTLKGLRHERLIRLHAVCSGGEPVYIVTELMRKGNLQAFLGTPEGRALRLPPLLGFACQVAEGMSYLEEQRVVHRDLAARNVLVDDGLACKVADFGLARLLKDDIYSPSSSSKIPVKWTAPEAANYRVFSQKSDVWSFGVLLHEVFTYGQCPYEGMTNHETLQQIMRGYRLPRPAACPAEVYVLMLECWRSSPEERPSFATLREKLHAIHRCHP

ASK1 = molecular target: T28, ASK1 (Homo sapiens, UniProt Q99683)
T28 construct: purchased DiscoverX (KINOMEscan)
T28 sequence (Q99683 whole entry): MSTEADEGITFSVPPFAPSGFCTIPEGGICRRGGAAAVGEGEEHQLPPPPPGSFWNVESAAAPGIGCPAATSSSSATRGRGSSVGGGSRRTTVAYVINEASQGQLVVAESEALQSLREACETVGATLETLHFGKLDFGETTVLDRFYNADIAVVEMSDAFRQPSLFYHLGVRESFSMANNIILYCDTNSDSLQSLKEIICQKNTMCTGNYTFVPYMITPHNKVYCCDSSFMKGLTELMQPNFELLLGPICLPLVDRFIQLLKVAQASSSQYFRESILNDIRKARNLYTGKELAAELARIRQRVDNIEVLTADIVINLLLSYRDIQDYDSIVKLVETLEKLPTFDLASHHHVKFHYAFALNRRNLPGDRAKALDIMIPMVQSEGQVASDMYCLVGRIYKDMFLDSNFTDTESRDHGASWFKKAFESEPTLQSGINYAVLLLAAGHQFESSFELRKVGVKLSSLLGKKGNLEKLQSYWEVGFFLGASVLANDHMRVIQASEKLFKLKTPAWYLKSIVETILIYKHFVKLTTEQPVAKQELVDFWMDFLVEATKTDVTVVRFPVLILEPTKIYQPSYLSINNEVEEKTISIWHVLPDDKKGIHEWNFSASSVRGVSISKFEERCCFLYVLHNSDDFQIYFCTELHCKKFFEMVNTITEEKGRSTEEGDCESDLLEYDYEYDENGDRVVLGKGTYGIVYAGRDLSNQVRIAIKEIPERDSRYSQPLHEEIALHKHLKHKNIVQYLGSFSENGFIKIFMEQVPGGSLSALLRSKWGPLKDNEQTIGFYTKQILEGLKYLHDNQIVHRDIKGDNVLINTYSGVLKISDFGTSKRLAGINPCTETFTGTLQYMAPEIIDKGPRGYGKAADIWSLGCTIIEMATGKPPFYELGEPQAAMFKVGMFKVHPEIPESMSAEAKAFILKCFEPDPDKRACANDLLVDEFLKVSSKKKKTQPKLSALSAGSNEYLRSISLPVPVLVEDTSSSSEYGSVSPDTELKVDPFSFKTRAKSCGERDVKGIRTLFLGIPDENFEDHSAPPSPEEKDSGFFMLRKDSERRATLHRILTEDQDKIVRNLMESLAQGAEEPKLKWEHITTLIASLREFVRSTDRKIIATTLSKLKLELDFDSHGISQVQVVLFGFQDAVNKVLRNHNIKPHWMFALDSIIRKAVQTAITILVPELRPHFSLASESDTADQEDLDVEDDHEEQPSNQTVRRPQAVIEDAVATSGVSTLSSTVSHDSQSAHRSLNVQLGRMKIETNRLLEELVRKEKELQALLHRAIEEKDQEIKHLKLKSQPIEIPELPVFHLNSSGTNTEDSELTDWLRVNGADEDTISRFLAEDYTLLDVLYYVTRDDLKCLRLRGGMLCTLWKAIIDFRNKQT

DMPK = molecular target: T29, DMPK (Homo sapiens, UniProt Q09013)
T29 construct: purchased DiscoverX (KINOMEscan)

NEK11 = molecular target: T30, NEK11 (Homo sapiens, UniProt Q8NG66)
T30 construct: purchased DiscoverX (KINOMEscan)

MAP4K3 = molecular target: T31, MAP4K3 (Homo sapiens, UniProt Q8IVH8)
T31 construct: purchased DiscoverX (KINOMEscan)

CAMK2A = molecular target: T32, CAMK2A (Homo sapiens, UniProt Q9UQM7)
T32 construct: purchased DiscoverX (KINOMEscan)
T32 sequence (Q9UQM7 whole entry): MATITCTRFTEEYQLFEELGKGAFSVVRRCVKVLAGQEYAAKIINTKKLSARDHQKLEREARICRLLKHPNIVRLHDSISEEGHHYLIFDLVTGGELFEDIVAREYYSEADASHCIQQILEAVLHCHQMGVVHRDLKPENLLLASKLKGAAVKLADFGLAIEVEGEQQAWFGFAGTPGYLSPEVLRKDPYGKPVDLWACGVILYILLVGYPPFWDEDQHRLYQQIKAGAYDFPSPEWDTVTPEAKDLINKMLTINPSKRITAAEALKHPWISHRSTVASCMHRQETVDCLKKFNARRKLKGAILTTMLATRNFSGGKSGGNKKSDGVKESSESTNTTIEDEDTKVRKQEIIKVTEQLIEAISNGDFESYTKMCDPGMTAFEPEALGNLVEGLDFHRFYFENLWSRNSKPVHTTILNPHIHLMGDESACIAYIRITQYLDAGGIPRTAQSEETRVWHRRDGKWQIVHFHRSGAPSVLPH

ERK8 = molecular target: T33, ERK8 (Homo sapiens, UniProt Q8TD08)
T33 construct: purchased DiscoverX (KINOMEscan)

GRK1 = molecular target: T34, GRK1 (Homo sapiens, UniProt Q15835)
T34 construct: purchased DiscoverX (KINOMEscan)

CDK7 = molecular target: T35, CDK7 (Homo sapiens, UniProt P50613)
T35 construct: purchased DiscoverX (KINOMEscan)

ULK2 = molecular target: T36, ULK2 (Homo sapiens, UniProt Q8IYT8)
T36 construct: purchased DiscoverX (KINOMEscan)

CAMK2B = molecular target: T37, CAMK2B (Homo sapiens, UniProt Q13554)
T37 construct: purchased DiscoverX (KINOMEscan)

Measured: Score

COc1cc(/C=C2\N=C(N)NC2=O)ccc1O [Polyandrocarpamine A]
67: ERK8
71: ARK5
78: MAP4K3
98: MYLK | CAMK2A
97: [3]
90: CAMK2B
81: INSRR
100: MST2 | TRKB | SNARK | TNIK | TESK1 | EGFR(S752-I759del) | NEK6 | TBK1 | [2] | LCK | BLK | KIT(D816H) | MLK3 | CHEK2 | MAP3K2 | SRMS | ASK1 | DMPK | NEK11 | GRK1 | CDK7 | ULK2
94: TLK1 | FAK
87: AMPK-alpha2
26: CSNK2A2
95: TRKA | [1] | ZAK
